Experimental data taken from patent US9670217B2, “Process for preparing chlorins and their pharmaceutical uses” (UNIVERSIDADE DE COIMBRA, priority 2008, dated 2017).

Experiments:
[1] = system: A-549 (human non-small cell lung carcinoma); experiment: Cell photosensitization, 748 nm diode laser, resazurin; format: cell-based
[2] = system: PC-3 (human prostate carcinoma); experiment: as above; format: cell-based; conditions: 6 J/cm^2 diode laser irradiation at 28.5 mW
[3] = system: CT26 (murine colon carcinoma); experiment: as above; format: cell-based, mouse; conditions: 6 J/cm^2 diode laser irradiation at 28.5 mW
[4] = Photobleaching under 748 nm diode laser irradiation; format: physicochemical; conditions: PBS:methanol; 100 mW laser irradiation at 748 nm
From the text: The irradiation of bacteriochlorins in the photobleaching experiments employed the 748 nm Lynx diode laser. For animal studies we employed a costumer-made Hamamatsu diode laser, type LA0873. S/N M070301, which delivered 140 mW at 748 nm. This diode laser was controlled by a ThorLabs 500 mA ACC/APC Laser Diode Controller and in-house electronics. The laser energies of this and the other higher-energy lasers employed in this work were regularly checked with an Ophir model AN/2E laser power meter.
Photobleaching experiments were conducted in PBS. PBS:methanol (50:50) and methanol solutions. The solutions were irradiated in a cuvette with an optical path of 1 cm and the Lynx diode laser. The initial absorption of the solutions was ca. 0.8. The mechanism of photobleaching was assessed with the irradiation of the sensitizer using the Hamamatsu diode laser at 80 mW. The sensitizer was irradiated in PBS and in the presence of ascorbic acid or azide.
The chemical stability of the compounds was studied exposing them to light, air, and pH changes. The most significant degradation occurs for aerated solutions irradiated by light of the appropriate wavelength. In such circumstances the photobleaching of the compounds follows a first-order rate and is proportional to the energy of the incident laser light. In general, it was also observed that the photobleaching rate increases with the amount of water present in the solution. Bennett reported the photoconversion of Foscan® (m-THPC) and of the analogous bacteriochlorin (m-THPB) in PBS:methanol (50:50). Scherz reported the photoconversion of Tookad® in acetone and Triton-X:PBS [3]. For the purpose of comparing the photostability of Luzitins with that of Foscan® and Tookad®, we present in Table 2 the half-lives (t1/2) of representative drugs described herein, together with those of Foscan and Tookad® normalized for a laser power of 100 mW.
Luzitin-FMet was dissolved in PBS:methanol (2:3), transferred to a 1 cm quartz cell and its absorption spectrum was registered, FIG. 6. The quartz cell was then placed in the beam of the 748 nm Lynx diode laser, previously unfocused to have a beam diameter coincident with the window of the quartz cell. The laser power measured under these conditions was 28.8 mW. Every 5 minutes the irradiation was interrupted and a new absorption spectrum was registered. This procedure was followed for 65 minutes. The photobleaching follows the kinetics of a first-order reaction in the time window of the experiment. […] Whereas the bacteriochlorin peak at 743 nm is reduced from an absorbance of 1.128 to 0.337, the absorption of the chlorin only increases from 0.114 to 0.151. Taking into consideration the molar absorption coefficients of the compounds at these wavelengths, it is clear that whereas 70% of the bacteriochlorin is destroyed during the irradiation, only a few percent of chlorin are formed.
The half-lives of other bacteriochlorins normalized 100 mW laser irradiation at 748 nm are presented in […], together with the literature data for the photodegradation of Foscan® and Tookad® normalized for the same light intensity. It was also observed that the half-live to Luzitin-Cl is increased by a factor of 30 when the PBS solution of the photosensitizer is saturated with Argon, which reduces the oxygen concentration in the solution.

[5] = Absorption spectra (λmax, molar absorption coefficient); format: physicochemical; conditions: ethanol solutions
Procedure: Absorption spectra were recorded on a Shimadzu UV-2100 spectrophotometer or with a Carry 50 Biospectrophotometer (Varian, Mulgrave, USA). Fluorescence spectra were measured with a Spex Fluorolog 3 spectrophotometer, with correction for the wavelength dependence system (RCA C31034 photomultiplier), or with a PerkinElmer LS 50 spectrofluorimeter. Transient absorption spectra were measured with an Applied Photophysics LKS 60 nanosecond laser flash photolysis kinetic spectrometer, using the third harmonic of a Spectra-Physics Quanta Ray GCR 130-01 Nd/YAG laser for excitation, a Hamamatsu 1P28 photomultiplier and a Hewlett-Packard Infinium oscilloscope (1 GS/s). Flash photolysis measurements were made in the presence of air and in argon saturated solutions. Photoacoustic calorimetry employed the same Nd/YAG laser, a home-made front-face photoacoustic cell with a 2.25 MHz Panametrics transducer (model 5676) and a Tektronix DSA 601 transient recorder. Room-temperature singlet-oxygen phosphorescence was measured at 1270 nm with a Hamamatsu R5509-42 photomultiplier, cooled to 193 K in a liquid nitrogen chamber (Products for Research model PC176TSCE005), following laser excitation of aerated solutions at 355 nm, using an adapted Applied Photophysics spectrometer. Singlet oxygen emission at 1270 nm was also monitored with a liquid nitrogen-cooled germanium detector (North Coast) coupled to a Tectronix Digitizing scope (TDS 520B), following sample excitation with 5 ns laser pulses of the third harmonic (355 nm) generated by a Q-switched Nd:YAG laser (Continuum Surelite II).
This is indicative of little aggregation between the molecules, which exist mostly as monomers at these concentrations in the solvents studied. Table 1 presents typical red and infrared molar absorption coefficients (εmax) and wavelength maxima. The same table also presents representative fluorescence quantum yields (ΦF) of Luzitins. The fluorescence quantum yields decrease of these molecules decrease in the presence of chlorine substituents, a fingerprint of the heavy atom effect expected for such molecules.

[6] = system: A-549 (human non-small cell lung cancer); experiment: Cytotoxicity in the dark, resazurin assay; format: cell-based; parameters: unit not given here; conditions: A-549, dark
Procedure: The cell lines employed in laser irradiation were the HT-29 (human colon carcinoma), PC-3 (human prostate carcinoma), SW2 (human small cell lung cancer), A-549 (human non-small cell lung cancer). S91/I3 (mouse melanoma) and CT26 (mouse colon carcinoma). They were used both for cytotoxicity and photocytotoxicity experiments. PC-3. SW2 and S91113 cells were cultured in RPMI-1640 medium (Sigma-Aldrich, Steinheim, Germany) and HT-29, A-549 and CT26 cells were cultured in Dulbecco's Modified Eagle Medium (DMEM) (Cambrex Bioscience, Verviers, Belgium). […] For the in vitro studies, cells at 85-90% confluence, were detached with Trypsin-Versene-EDTA solution (Cambrex Bioscience, Verviers, Belgium), counted and seeded in flat-bottom 96-well plates at the desired densities.
Cell viability assay. In the end of the experiences cell viability was evaluated by the resazurin reduction assay. […] The absorbance values of each well were measured at 540 nm and 630 nm using a microplate reader Multiskan Ex (Thermo-Electron Corporation, Vartaa, Finland).
Cytotoxicity. […] After the incubation the cell viability was evaluated. […] Cytotoxicity was quantified by expressing cell death relatively to untreated cells (% of control cells). […]

[7] = n-octanol:water partition coefficient (shake-flask); format: physicochemical
Procedure: The n-octanol:water partition coefficients (CP) were measured using a minor modification of the shake-flask method described by some of us in the literature. The modification concerned the excitation of the absorption band ca 500 nm and the collection of the fluorescence in the red/IR region.

Q: For `CNS(=O)(=O)c1ccc(F)c(-c2c3nc(c(-c4c(F)ccc(S(=O)(=O)NC)c4F)c4ccc([nH]4)c(-c4c(F)ccc(S(=O)(=O)NC)c4F)c4nc(c(-c5c(F)ccc(S(=O)(=O)NC)c5F)c5ccc2[nH]5)CC4)CC3)c1F` [Luzitin-F2Met, 5,10,15,20-tetrakis(2,6-fluoro-3-N-methylsulfamoylphenyl)bacteriochlorin], which cell kill ([1]; 0.5 μM, laser light dose 6 J/cm^2, incubation 18 hours) is on record?
A: Its cell kill is 100%.

Q: And the “concentration of sensitizer required to kill 90% of cells (LD90)” value (“concentration … to kill 90% of cells (LD90)” below) ([1]; 6 J/cm^2 diode laser irradiation at 28.5 mW)?
A: Its value is 0.5 µM.

Q: And the “concentration … to kill 90% of cells (LD90)” value [2]?
A: The value was 0.5 µM.

Q: What about the “concentration … to kill 90% of cells (LD90)” value [3] of the same compound?
A: The value was 1.0 µM.

Q: What about the “t1/2 (photobleaching half-life)” value [4] of the same compound?
A: Its value is 6,480 sec.

Q: What about the λmax [5] of the same compound?
A: Its λmax is 742.5 nm.

Q: What about the εmax ([5]; corrected for the chlorin content) of the same compound?
A: Its εmax is 78,000^d) M^−1 cm^−1.

Q: And the “highest concentration that causes relatively no effect in viability in the dark” value [6]?
A: The value was 50.

Q: And the “log KOW (n-octanol:water partition coefficient)” value [7]?
A: The value was 2.7.
